Results published in patent publication US10500178B2, “LTB4 inhibition to prevent and treat human lymphedema” (The Board of Trustees of the Leland Stanford Junior …, priority 2015, dated 2019).
Each block holds one compound with its values, some of them ahead of it.

What was measured:
[1] = system: acquired lymphedema surgically induced in the tails of female C57BL/6J mice; assay: mouse-tail model of acquired lymphedema (tail volume, histology); assay type: in vivo; conditions: for amelioration of lymphedema (serial tail-volume measurements over 24d): therapies started on post-surgery d3 (late LTB4 antagonism)
Procedure: Surgical induction of experimental lymphatic vascular insufficiency. […] Briefly, a full-thickness circumferential incision of the skin was made 16 mm distal to the base of the mouse tail under anesthesia. Lymphatic trunks were ablated through controlled, limited cautery application under the surgical microscope. For surgical controls (sham animals), the skin incision alone was performed without lymphatic cautery.
(§1) All small molecule drugs were administered through daily intraperitoneal injection.
Tail volume quantitation. Tail-volume measurements at each designated time were quantified by observers blinded to the treatment status of the subjects. Tail volumes were calculated through a digital photographic technique pre-operatively, and post-operatively (d3, d9, d14, d20, and d24), using an Olympus D520 Zoom digital camera at SHQ resolution at a fixed distance from the subject (37 cm), as previously described. Tail volumes were derived from the measurement of the tail diameter using the truncated cone approximation. Microlymphangiography was performed by injecting FITC-dextran (size: 2000 kDa) subcutaneously into mouse tails on post-surgery d24. Images were taken 20 minutes after injection.
Viral particles were mixed with Lipofectamine 2,000 (5% final vol/vol, Invitrogen) before injection, to increase transduction efficiency. qRT-PCR, immunofluorescence and fluorescence in situ hybridization were used to evaluate the silencing efficiency in the mouse tail skin 24d after surgery.

HLECs [2] = assay: tube formation assay on Matrigel; assay type: cell-based, human; conditions: 400 nM LTB4; 10 μM U75302+LTB4
Procedure: Tube formation assay. Matrigel (BD Matrigel Basement Membrane Matrix Growth Factor Reduced, Phenol Red Free) was thawed on ice overnight, dispersed into 48-well plates (100 μl per well) and allowed to polymerize for 30 minutes at 37° C. Serum starved HLECs were seeded on the Matrigel at a density of 1×10^4 cells per well. Images of four representative fields were taken 10 hrs later. […]

LTB4 = assay: serum LTB4 levels in lymphedema mice; assay type: in vivo, mouse; conditions: therapies initiated on d3, assessed on d24
Procedure: as §1
Quantification of LTB4, PGE2 and S1P with LC-MS/MS. Briefly, LTB4, PGE2 and S1P were separated from serum with an ACE reverse phase C18 HPLC column. Formic acid 0.5% in 5 mM NH4Ac (A) and formic acid 0.5% in acetonitrile/water (9/1) (B) were used as the mobile phase. […] The internal standard of this method was Carbutamide. The quantification limit was 1 ng/ml. The calibration range was 1-2000 ng/ml.

Notch (NICD, DLL4) = assay: Western blot of NICD and DLL4 in HLECs; assay type: cell-based, human
Procedure: (§2) Western Blot HLECs were lysed with RIPA buffer containing protease and phosphatase inhibitors. Lysates were sonicated briefly and centrifuged. The supernatant was collected and protein concentration was determined by BCA assay. 60 µg of protein were resolved on a 10% SDS-PAGE gel, transferred to a nitrocellulose membrane, blocked with 5% milk and probed with one of the following antibodies: anti-Sphk1 (3297,Cell Signaling); antip-Sphk1(SP1641, ECM Biosciences); anti-NICD (ab8925,Abcam), anti-VEGFR3 (AF743,R&D); anti-DLL4 (ab7280, Abcam). Actin was used to normalize the total protein. Immunofluorescence Immunofluorescence staining was performed using the following primary antibodies: anti-5-LO (3289, Cell Signaling); anti-MPO (ab45977, Abcam); Anti-CD68 (ab22506, Abcam); anti-Prox1(ab101851, Abcam); anti-NICD (ab8925, Abcam), anti-EphrinB2 (AF496,R&D); anti-VEGFR3 (AF743,R&D); anti-Hey1(ab22614, Abcam); Alexa-Fluor-555 Phalloidin (8953,Cell Signaling); anti-DIG(11093274910, Sigma-Aldrich). Negative controls with isotype IgG were run in parallel. Images were acquired by Zeiss 710 confocal microscopy and analyzed using ImageJ software.

HLECs [3] = assay: HLEC lymphangiogenesis (tube formation, migration, wound healing, sprouting); assay type: cell-based, human; conditions: for HLEC lymphangiogenesis in the presence of S1P, shS1pr1, shDll4 or DAPT: LTB4-impaired or S1P-treated HLEC cultures
Procedure: Tube formation assay. Matrigel (BD Matrigel Basement Membrane Matrix Growth Factor Reduced, Phenol Red Free) was thawed on ice overnight, dispersed into 48-well plates (100 μl per well) and allowed to polymerize for 30 minutes at 37° C. Serum starved HLECs were seeded on the Matrigel at a density of 1×10^4 cells per well. Images of four representative fields were taken 10 hrs later. ImageJ software was used to determine total cellular cord length. Migration assay. Cellular migration was evaluated using a modified Boyden chamber assay. Briefly, 2×10^4 serum-starved HLECs in 250 μl serum free medium were seeded in the upper chamber of the trans-well. 750 μl of serum free ECM containing various drugs was placed in the lower chamber. Ten hours later, migrated cells were stained with a modified Giemsa solution (Sigma-Aldrich) for quantification. Wound healing assay. 6×10^5 HLECs were seeded on an Easy Slide (Millipore) the day before the experiment and allowed to form a fully confluent monolayer, and then cells were serum starved for 12 hrs. A 200 μl pipet tip was used to scratch a straight line across the middle of the cell monolayer. Cell debris was removed through PBS washing. Images were taken immediately after the scratch and the same windows were imaged again 12 hrs later. The rate of cell migration was calculated as the average percent wound closure from at least 5 independent experiments using ImageJ software. Fibrin gel sprouting assay. HLECs were first coated overnight onto the Cytodex-3 beads with an approximate concentration of 400 cells per bead. On the following day, the microbeads were transferred to 2.0 mg/ml fibrinogen solution containing 0.15 units/ml of aprotinin. Later, 0.625 units/ml thrombin was added to the mixture to gelatinize the fibrin gel. Endothelial sprouts (vessel outgrowth) were observed within 3 days of culture using phase micrographic images and quantified as number of vessels per bead.

[4] = system: lymphatic vessel formation; assay: Matrigel plug assay (LYVE1, VEGFR3 staining); assay type: in vivo, mouse; conditions: Matrigel plugs in SCID mice
Procedure: Matrigel plug assay. SCID mice (NOD.Cg-Prkdcscid I/2rgtmlWjl/SzJ, The Jackson Laboratory) of 4-6 weeks of age were used for Matrigel plug injection. Two 250 μl Matrigel plugs were subcutaneously injected into the dorsal surface of the mice. Plugs were recovered with the adjacent subcutaneous tissue 14d later. Tissue was then embedded in paraffin and sectioned for staining.

HLECs [5] = assay: NICD and filopodia histology of HLECs; assay type: cell-based, human
Procedure: as §2

HLECs [6] = assay: trans-well migration assay; assay type: cell-based, human; conditions: 400 nM LTB4
Procedure: Migration assay. Cellular migration was evaluated using a modified Boyden chamber assay. Briefly, 2×10^4 serum-starved HLECs in 250 μl serum free medium were seeded in the upper chamber of the trans-well. 750 μl of serum free ECM containing various drugs was placed in the lower chamber. Ten hours later, migrated cells were stained with a modified Giemsa solution (Sigma-Aldrich) for quantification.

VEGFR3, Vegfc, Vegfd = assay: lymphangiogenic factor levels in HLECs (qRT-PCR, Western blot); assay type: cell-based, human; conditions: 400 nM LTB4, 100 ng/ml S1P, 25 μM DAPT
Procedure: as §2
Quantitative RT-PCR. Quantitative PCR (qRT-PCR) was performed using FastStart SYBR Green (Roche) on a Lightcycler 480. mRNA expression relative to GAPDH mRNA levels were calculated using the delta-delta threshold cycle (ΔΔCT) method. PCR microarrays were purchased from Qiagen: RT2 Profiler PCR Array 384-Well Format, Mouse Angiogenesis PAMM-024ZA) and VEGF Signaling (330231 PAMM-091ZA). […]

[7] = system: Notch transcriptional activity; assay: CSL luciferase reporter assay in HLECs; assay type: cell-based, human
Procedure: pG13-6-CSL luciferase assay. CSL reporter activity was determined as described previously. HLECs (5.0×105) were […] and transfected with both 1 μg CSL luciferase reporter ([…]) and 10 ng Renilla luciferase pRL-SV40 (Promega) using Nucleofactor (Lonza). Luciferase and Renilla activity were then determined with Dual-Luciferase® Reporter Assay System (Promega) and Berthold dual-injection illuminometer.

HLECs [8] = assay: LTB4-mediated HLEC apoptosis; assay type: cell-based, human
p-Sphk1 = assay: Western blot of p-SphK1 in HLECs; assay type: cell-based, human; conditions: exogenous LTB4 (400 nM)
Procedure: as §2

HLECs [9] = assay: fibrin gel sprouting assay; assay type: cell-based, human; conditions: 400 nM LTB4
Procedure: Fibrin gel sprouting assay. HLECs were first coated overnight onto the Cytodex-3 beads with an approximate concentration of 400 cells per bead. On the following day, the microbeads were transferred to 2.0 mg/ml fibrinogen solution containing 0.15 units/ml of aprotinin. Later, 0.625 units/ml thrombin was added to the mixture to gelatinize the fibrin gel. Endothelial sprouts (vessel outgrowth) were observed within 3 days of culture using phase micrographic images and quantified as number of vessels per bead.

SMILES: CC(C)Cc1ccc(C(C)C(=O)O)cc1 (centres unmarked) [ibuprofen]
- tail swelling ([1]; therapies initiated on d3): not
- tail histology (edema, epidermal/dermal junction) ([1]; treatment from d3): unresolved edema, irregular epidermal/dermal junction

SMILES: CCCCC/C=C\C[C@@H](O)/C=C/c1cccc(C[C@@H](O)CCCCO)n1 [U75302]
- tube formation (tube area) (HLECs [2]): normalized tube formation

SMILES: CC(C(=O)O)c1cccc(C(=O)c2ccccc2)c1 (centres unmarked) [ketoprofen]
- serum LTB4 levels (LTB4): effectively reduced

- reduction of reporter activity ([7]; physiologic (400 nM) levels of LTB4): > 50%
SMILES: CCCCC/C=C\C[C@@H](O)/C=C/C=C/C=C\[C@@H](O)CCCC(=O)O [LTB4, leukotriene B4]
- cleaved Notch (NICD) and DLL4 levels (Notch (NICD, DLL4)): decreased
- concentration dependence of lymphangiogenesis block (HLECs [3]; 100 nm, 200 nm, 400 nm or 800 nm LTB4): blocked lymphangiogenesis in a concentration-dependent manner
- VEGFR3 expression of HLECs in vivo [4]: inhibited the VEGFR3 expression
- lymphatic vessel formation in vivo ([4]; recovered 14d later): attenuated lymphatic vessel formation
- filopodia, nuclear-localized NICD and EphrinB2, cell shape (HLECs [5]): increased filopodia and less nuclear-localized NICD and EphrinB2
- HLEC migration (HLECs [6]): inhibited HLEC migration
- VEGFR3 expression and Vegfc, Vegfd transcription (VEGFR3, Vegfc, Vegfd): reduced
- tube formation (tube area) (HLECs [2]): decreased tube area
- Notch transcriptional activity (CSL reporter), in words ([7]; LTB4 100-800 nm for 24 h): inhibited Notch transcriptional activity in a dose dependent fashion
- LEC apoptosis (HLECs [8]): induced LEC apoptosis in a concentration-dependent manner
- p-Sphk1 in HLECs (p-Sphk1): diminished p-Sphk1
- sprout formation in 3D-fibrin-gel assay (HLECs [9]): preventing them from forming sprouts

SMILES: C[C@H](NC(=O)Cc1cc(F)cc(F)c1)C(=O)N[C@H](C(=O)OC(C)(C)C)c1ccccc1 [DAPT]
- effect of adding DAPT to bestatin-therapy in lymphedema ([1]; DAPT 30 mg/kg added to bestatin 4 mg/kg): abrogated the therapeutic benefit of bestatin
- HLEC lymphangiogenesis in the presence of S1P, shS1pr1, shDll4 or DAPT (HLECs [3]): did not abrogate lymphangiogenesis entirely
- VEGFR3 expression and Vegfc, Vegfd transcription (VEGFR3, Vegfc, Vegfd): inhibited

SMILES: CCCCCCCCCCCCC/C=C/[C@@H](O)[C@@H](N)COP(=O)(O)O [S1P, sphingosine-1-phosphate]
- cleaved Notch (NICD) and DLL4 levels (Notch (NICD, DLL4)): increased levels
- HLEC lymphangiogenesis in the presence of S1P, shS1pr1, shDll4 or DAPT (HLECs [3]): restored the abnormal HLEC migration, differentiation, sprouting, and vessel formation caused by LTB4
- filopodia, nuclear-localized NICD and EphrinB2, cell shape (HLECs [5]): unified stalk-cell shape and enhanced nuclear localization
- VEGFR3 expression and Vegfc, Vegfd transcription (VEGFR3, Vegfc, Vegfd): increased the expression of these factors
- increase of reporter activity from base line ([7]; S1P): 3 fold

SMILES: CC(c1cc2ccccc2s1)N(O)C(N)=O (centres unmarked) [zileuton, 1-[1-(1-benzothiophen-2-yl)ethyl]-1-hydroxyurea]
- amelioration of lymphedema (serial tail-volume measurements over 24d) [1]: demonstrated therapeutic amelioration of lymphedema
- serum LTB4 levels (LTB4): effectively reduced

SMILES: CCCc1c(OCCCOc2cc(O)c(-c3ccc(F)cc3)cc2CC)cccc1Oc1ccccc1C(=O)O [Ly293111, 2-[2-propyl-3-[3-[2-ethyl-4-(4-fluorophenyl)-5-hydroxyphenoxy]-propoxy]phenoxy]benzoic acid]
- benefit of LTB4 antagonism administered prior to surgery ([1]; therapies administered prior to sham and lymphedema surgery (bestatin, Ly293111 from d0, shLtb4r1 on d(−7))): not beneficial
- amelioration of lymphedema (serial tail-volume measurements over 24d) [1]: demonstrated therapeutic amelioration of lymphedema
